According to patent US12415799B2, “Indazole-fused cyclic compound” (Zhejiang Yangli Pharmaceutical Technology Co., Ltd., priority 2020, dated 2025):

What was measured:
[1] = biological target: ERα (Homo sapiens (Human), UniProt P03372); test: Degradation experiment of MCF-7 ERα (ELISA); assay type: cell-based; details: MCF-7 cell line, 4 hours incubation, total ERα ELISA; read-out: IC50 value of promoting ERα degradation
Text: (2) Degradation Experiment of MCF-7 ERα Experimental Materials:
Phenol red-free MEM culture medium was purchased from Wisent, fetal bovine serum was purchased from Biosera, and Human Total ERα/NR3A1 ELISA kit was purchased from R&D. MCF-7 cell line was purchased from Cell Bank of Type Culture Collection of Chinese Academy of Sciences. Nivo5 multi-label analyzer (PerkinElmer).
MCF-7 cells were resuspended in culture medium (phenol red-free MEM+5% charcoal/dextran-treated fetal bovine serum+1% penicillin-streptomycin double antibody solution), and seeded in a clear 96-well cell culture plate with 80 μL per well containing 20,000 cells, and the cell culture plate was incubated overnight in a carbon dioxide incubator;
ELISA plate was coated with strips, human total estrogen receptor a capture antibody was diluted with 1×PBS with a final concentration of 1 μg/mL, and 100 μL of mixture was added to each well, and incubated overnight at 25° C.
Cell administration: The test compound was diluted to the 8th concentration with a multi-channel pipette, and the compound concentration was 20 μM and 4 μM, and then diluted to the 8th concentration of 0.256 nM in turn, and a double-duplicate experiment was set-up. 78 μL of culture medium was added to the middle plate, then 2 μL of gradient dilution compound per well was transferred to the middle plate according to the corresponding position, and 20 μL of the mixture per well was mixed evenly and transferred to the cell plate, and the final concentration of DMSO was 0.5%, and the mixture was incubated at 37° C. for 4 hours;
preparation of standard curve solution: 110 ng/mL of standard curve storage solution was 6-fold diluted with buffer (1×PBS containing 1 mM EDTA, 0.5% Triton X-100, pH 7.2 to 7.4) to obtain a solution with a concentration of 18.3 ng/mL, and then 91.5-fold diluted with buffer (1×PBS containing 1 mM EDTA, 0.5% Triton X-100, 1 M urea, pH 7.2 to 7.4) to obtain a solution with a concentration of 0.2 ng/mL, and 8-point gradient dilution was performed using buffer (1×PBS containing 1 mM EDTA, 0.5% Triton X-100, 1 M urea, pH 7.2 to 7.4) with a final concentration of […].
1×PBS was pre-cooled, and after the incubation of the compound, the supernatant was removed, and then the plate was washed with 250 μL of pre-cooled 1×PBS per well, then 30 µL of cell lysate per well (1×PBS containing 1 mM EDTA, 0.5% Triton X-100, 6 M urea, 1 mM active sodium orthovanadate, 2.5 mM sodium pyrophosphate, lx protease inhibitor, pH 7.2 to 7.4) was added, and lysed on ice for 15 minutes;
after cell was lysed in the cell plate, the cell lysate was 6-fold diluted with 150 μL of buffer (1×PBS containing 1 mM EDTA, 0.5% Triton X-100, pH 7.2 to 7.4) per well, and the mixture was mixed evenly by blowing with a multi-channel pipette, and 100 μL of solution per well was transferred to the ELISA plate;
the human total estrogen receptor a detection antibody stock solution (14.4 μg/mL) was 36-fold diluted with buffer (1×PBS containing 1% bovine serum albumin), and the final concentration of the detection antibody was 400 ng/mL, and 100 μL of the solution per well was transferred to the ELISA plate and incubated at 25° C. for 2 hours;
Data analysis: A, B, C and D in the four-parameter equation y=(A−D)/[1+(x/C)^B]+D were calculated according to the original data of the standard curve, wherein, y was the original OD450 value, x was the concentration of the corresponding point of the standard curve. According to the four-parameter equation and the OD450 reading of the original data of the sample, the concentration of ERα at the corresponding point was calculated. The equation (Sample−Min)/(Max−Min)×100% was used to convert the original data into inhibition rate, and the IC50 value could be obtained by curve fitting with four parameters (obtained by “log (inhibitor) vs. response—variable slope” mode in GraphPad Prism).
Max wells: Positive control wells reading at 100 nM Fulvestrant-treated cell wells […]

[2] = tested on: rat uterus; test: Uterine wet weight inhibition experiment in rat cubs; assay type: in vivo; details: 18-day-old female rat pups, oral, three consecutive days; compounds 25 mg/kg, Ethinylestradiol 0.1 mg/kg
Procedure: The purpose of this experiment was to evaluate the effect of the compound of the present disclosure on uterine growth inhibition in 18 to 21-day-old female rat pups (provided by Beijing Vital River Laboratory Animal Technology Co., Ltd.). In this experiment, 18-day-old female rat pups were orally administered the compound of the present disclosure at a dose of 25 mg/kg for three consecutive days, and the control group was orally administered 0.1 mg/kg of Ethinylestradiol for three consecutive days, and the blank group was not given any drug except the corresponding solvent. Three days after the administration, the rats were sacrificed, and the weight of the rat uterus was weighed to observe the effect of the test drug on the growth inhibition of the rat uterus. Inhibition rate=100×[(VehicleEE−Cpd)/(VehicleEE−Vehicle)], VehicleEE was the wet weight of the rat uterus in the control group (administered 0.1 mg/kg of Ethinylestradiol orally); Cpd was the wet weight of the rat uterus in administration group; Vehicle was the wet weight of the rat uterus in the blank group.

ERα, sequence (P03372 whole entry): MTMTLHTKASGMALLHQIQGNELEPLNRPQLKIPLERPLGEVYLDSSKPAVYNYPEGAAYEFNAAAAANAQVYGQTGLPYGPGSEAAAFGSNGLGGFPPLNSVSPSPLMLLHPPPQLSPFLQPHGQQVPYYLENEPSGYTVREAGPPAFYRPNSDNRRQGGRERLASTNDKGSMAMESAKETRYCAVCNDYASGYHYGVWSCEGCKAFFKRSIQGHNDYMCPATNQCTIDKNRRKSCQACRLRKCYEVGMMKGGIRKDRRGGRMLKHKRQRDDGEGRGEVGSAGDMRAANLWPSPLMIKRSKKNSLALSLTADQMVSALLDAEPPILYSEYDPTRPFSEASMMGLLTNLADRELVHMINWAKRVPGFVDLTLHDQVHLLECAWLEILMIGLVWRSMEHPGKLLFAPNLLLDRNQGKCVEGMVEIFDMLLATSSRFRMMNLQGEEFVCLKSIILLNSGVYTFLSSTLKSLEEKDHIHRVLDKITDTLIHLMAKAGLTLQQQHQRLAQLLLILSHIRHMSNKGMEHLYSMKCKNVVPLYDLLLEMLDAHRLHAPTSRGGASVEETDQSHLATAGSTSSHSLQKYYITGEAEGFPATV

SMILES	IC50 [1] [nM]	Inhibition rate [2] [%]	Ratio of uterine wet weight/rat body weight [2] [mg/g]	Uterine wet weight [2] [mg]	DC50 [1] [nM]
FCCCN1CC[C@H](Nc2cnc(C3=C(CC(F)(F)F)CCCc4c3ccc3[nH]nc(F)c43)cn2)C1 [Compound 11A]	0.23	99.0	1.05	49.725	
FCCCN1CC(Nc2ccc(C3=C(CC(F)(F)F)CCCc4c3ccc3[nH]nc(F)c43)nc2)C1 [Compound 2]		95.8	0.84	52.34	0.2
